Activity calls are given as the source filed them.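 How the source made its calls: active means at least two of three replicate dose series yielding a converging curve fit, whether well or thinly supported; inactive means the rest.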
What follows are compounds tested against D(1A) dopamine receptor (Homo sapiens) (UniProt P21728) (assay: D1 receptor modulation with EC30 dopamine, dose response, D1 allosteric modulator project, cell-based, CRE-luciferase, HEK293 (AID 858);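 further: HEK 293 cells bearing human D1 receptor stimulated by dopamine at its EC30; luciferase light from a cAMP response element reporter gene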).
Chain of D(1A) dopamine receptor (Homo sapiens) (P21728 whole entry, looked up): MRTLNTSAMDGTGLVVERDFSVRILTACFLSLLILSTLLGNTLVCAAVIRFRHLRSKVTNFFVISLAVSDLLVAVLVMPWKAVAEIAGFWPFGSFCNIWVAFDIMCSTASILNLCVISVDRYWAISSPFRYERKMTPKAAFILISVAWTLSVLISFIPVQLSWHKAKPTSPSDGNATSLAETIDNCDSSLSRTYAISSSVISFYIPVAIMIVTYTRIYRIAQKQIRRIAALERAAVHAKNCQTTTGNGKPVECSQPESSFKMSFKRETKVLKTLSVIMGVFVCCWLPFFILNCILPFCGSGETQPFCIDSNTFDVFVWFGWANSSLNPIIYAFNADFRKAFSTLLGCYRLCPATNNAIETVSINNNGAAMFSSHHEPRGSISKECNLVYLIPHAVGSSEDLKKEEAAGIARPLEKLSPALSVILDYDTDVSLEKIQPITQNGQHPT

SMILES | outcome | EC50
NC(=O)c1cc(-c2ccccc2)nc(N2CCCCCC2)n1 | inactive | 
O=C(c1ccco1)N1CCN(S(=O)(=O)c2ccc3c(c2)CCN3C(=O)C2CC2)CC1 | inactive | 
CCOC(=O)c1c(NC(=O)c2cccs2)sc(C)c1CC | inactive | 
CN(C)c1oc(-c2ccccc2Cl)nc1C#N | inactive | 
CCCCNC(=O)Nc1ccc(Br)cn1 |  | 2430 nM
Cc1cc(NCCCn2ccnc2)n2c(nc3ccccc32)c1C#N | inactive | 
CCOC(=O)N1CCC(N2Cc3cccc(C(=O)NC(C)c4ccc5c(c4)OCCO5)c3C2=O)CC1 (stereo not drawn) | inactive | 
c1ccc(C2=Nn3c(nnc3-c3ccncc3)SC2)cc1 | inactive | 
CCn1cc(C(=O)NCC2COc3ccccc3O2)c2cc(OC)c(OC)cc2c1=O (stereo not drawn) | inactive | 
Cc1cc(N2CCN(S(=O)(=O)c3ccc4c(c3)OCCO4)CC2)n2ncnc2n1 | inactive | 
CCOC(=O)NCCc1ccc(OC)cc1 | inactive | 
Cc1cc(=O)oc2cc(OCC(=O)NCCc3nc4ccccc4[nH]3)ccc12 | inactive | 
COc1ccc2[nH]c(=O)c(CN(Cc3cccs3)Cc3nnnn3C(C)(C)C)cc2c1 | inactive | 
CCOC(=O)c1oc2ccc(Br)cc2c1NC(=O)CN1CCN(C)CC1 | inactive | 
Nc1nonc1-n1nnc(C(=O)c2ccccc2)c1-c1ccccc1 | inactive | 
COc1c(S(=O)(=O)n2nc(C)cc2C)ccc(Cl)c1Cl | inactive | 
CCCn1c(SCC(=O)Nc2sc(C)c(C)c2C(=O)OCC)nc2c1c(=O)n(C)c(=O)n2C | inactive | 
C=CCNc1sc(C(=O)C(C)(C)C)c(N)c1C#N |  | 1140 nM
Cc1cc(=O)c2n(Cc3ccc(Cl)cc3)nc[n+]2[nH]1 | inactive | 
Cc1ccc(Nc2nnc(SCc3cc(=O)n4ccsc4n3)s2)c(C)c1 | inactive | 
COc1cccc(-c2nnc(SCC(=O)Nc3cc(C)on3)o2)c1 | inactive | 
O=c1cc(-c2ccccc2)c2c([nH]1)CCCC2 | inactive | 
Cc1ccc(-n2cnnn2)c2cccnc12 | inactive | 

SMILES | outcome | EC50
C=CCSc1nc2ccccc2c(=O)[nH]1 | inactive | 
CCCCn1c2nc3ccccc3nc2c2c(=O)n(C(C)CC)cnc21 (stereo not drawn) | inactive | 
CCn1c(SCC(=O)Nc2cc(C)on2)nc2c(c1=O)SC(C)C2 (stereo not drawn) | inactive | 
CC(=O)C1=C(C)NC(SCC(=O)c2ccc(F)cc2)=C(C#N)C1c1ccco1 (stereo not drawn) | inactive | 
CCN1C(=O)c2cccc3c(S(=O)(=O)Nc4ccccn4)ccc1c23 | inactive | 
CC(C)C1C2=C(CC(C)(C)CC2=O)ON1c1ccccc1 (stereo not drawn) | inactive | 
CC1(C)CC(=O)C2=C(C1)OC(N)=C(C#N)C2c1cccc(OC(=O)c2ccco2)c1 (stereo not drawn) | inactive | 
CCOc1ncccc1C(=O)OCc1nnc(-c2ccccc2)o1 | inactive | 
CC1(C)CN=C(Nc2nc3ccccc3s2)S1 | inactive | 
CC(C)Sc1nc2c(c(=O)n1C)SC(C)C2 (stereo not drawn) | inactive | 
N#Cc1c(N)nc(-c2ccccc2)nc1-c1ccccc1 |  | 1170 nM
CCCn1c2c(c(O)c(C(=O)NC)c1=O)CCCC2 | inactive | 
CSC1=NCCN1C(=O)c1ccc(Br)o1 | inactive | 
CCOC(=O)c1ccc(Oc2cc(C)nc(SC)n2)cc1 | inactive | 
CC(C)Cn1c(-c2cccs2)nc2nc3ccccc3nc21 | inactive | 
CCOC(=O)c1c(C2CC2)csc1NC(C)=O | inactive | 
Cc1ccc(CCNS(=O)(=O)c2cnc[nH]2)cc1 | inactive | 
Cc1ccccc1NC(=O)c1nc[nH]c1C(=O)NCc1ccccc1 | inactive | 
COc1ncnc2c1N=C1CC(C)(C)CC(N)=C1S2 | inactive | 
Cn1c(SCc2ccon2)nc2ccccc2c1=O | inactive | 
CCSC(C)CC1C/C(=N/O)c2c(CC)noc2C1 (stereo not drawn) | inactive | 
CCOc1ccc(CC(=O)Nc2c(C(N)=O)oc3ccccc23)cc1OCC | inactive | 
CCCCCn1c(SCC(=O)OC)nc2c1c(=O)[nH]c(=O)n2C | inactive | 

SMILES | outcome | EC50
COc1ccc(OC)c(C2C=C(c3ccc(C)c(C)c3)Nc3nnnn32)c1 (stereo not drawn) | inactive | 
c1ccc(-c2nc3ccccc3c3nncn23)cc1 | inactive | 
CCn1c(=O)c2cc(S(=O)(=O)NC3CCCCC3)ccc2n(CC)c1=O | inactive | 
CCCCNC(=O)c1cc(-c2ccc(OC)c(OC)c2)on1 | inactive | 
C=CCn1c2ccccc2c2nnc(SCC(=O)NC(C(=O)OC)C(C)C)nc21 (stereo not drawn) | inactive | 
Clc1ccccc1Cn1nnc2c(N3CCCC3)ncnc21 | inactive | 
O=C(CCc1ccc(CCC(=O)c2cccs2)s1)c1cccs1 | inactive | 
Nc1nc(SCc2ccc3c(c2)OCCO3)n[nH]1 | inactive | 
CCC(=O)n1nc(-c2ccco2)nc1N | inactive | 
CCN(CCCNC(=O)CN(C)S(=O)(=O)c1cccc2nsnc12)c1cccc(C)c1 | inactive | 
CC(=O)Nc1nc2n(n1)C(c1ccccc1)C=C(c1ccccc1)N2 (stereo not drawn) | inactive | 
Cc1cccc(C2CC(c3ccc(F)cc3)Nc3nc(N)nn32)c1 (stereo not drawn) | inactive | 
O=C(CSc1nc2ccccc2s1)NC(=O)NCc1ccco1 | inactive | 
CCOC(=O)c1[nH]c2ccccc2c1NC(=O)C(C)(C)C | inactive | 
CCCCn1c(=NC(=O)c2cccnc2)c(C(=O)OCC)cc2c(=O)n3ccccc3nc21 |  | 2020 nM
CCOC(=O)C1CCCN(C(=O)c2cc(Cl)ccc2Cl)C1 (stereo not drawn) | inactive | 
c1ccc(C2CC(c3ccccc3)n3ncnc3N2)cc1 (stereo not drawn) | inactive | 
NC(=O)COc1ccc(NC(=O)OCc2ccccc2)cc1 | inactive | 
Cc1cc(C)nc(SCC(=O)N2CCCCC2)n1 | inactive | 
Clc1ccc(-n2nnnc2-c2ccccc2)cc1 | inactive | 
COC(=O)c1ccc(CSc2nc3c(cnn3-c3ccc(F)cc3)c(=O)[nH]2)o1 |  | 2490 nM
CCc1ccc2[nH]c(=O)c(CN(Cc3nnnn3C3CCCC3)C3CCCCC3)cc2c1 | inactive | 
Brc1ccc(-c2nn3c(Cc4ccccc4)nnc3s2)o1 | inactive | 

SMILES | outcome | EC50
CCC(Sc1nc(=O)cc(N)n1CCc1ccccc1)C(=O)Nc1ccccc1C#N (stereo not drawn) | inactive | 
CCSc1cnc(-c2ccccc2)n1CC | inactive | 
COC(=O)Nc1ccc2c(c1)N(C(=O)CCN1CCOCC1)c1ccccc1S2 | inactive | 
COc1ccc2nc(SCC(=O)N3CCCCCC3)c(C#N)cc2c1 | inactive | 
c1ccc2c(c1)nc(NCC1CCCO1)c1nnnn12 (stereo not drawn) | inactive | 
Cc1cc(C)n(-c2nc3ccccc3nc2Nc2ccc(CC(=O)O)cc2)n1 | inactive | 
Cc1c(C)c2ccc(OC3CCCCC3=O)cc2oc1=O (stereo not drawn) | inactive | 
c1ccc(Nc2nc3ccccc3n3cnnc23)cc1 | inactive | 
O=S(=O)(c1ccccc1)c1nc(-c2ccco2)oc1N1CCCCCC1 | inactive | 
CCOC(=O)c1c(-c2cccs2)csc1NC(=O)CSc1ncn[nH]1 | inactive | 
CC(C)Cn1c(=O)c(C(=O)Nc2cnccn2)c(O)c2ccccc21 | inactive | 
Cc1ccc(S(=O)(=O)N2CCN(C(=O)COC(=O)c3cc(C)oc3C)CC2)cc1 | inactive | 
Cn1nnnc1SCC(=O)Nc1nc(-c2ccccc2)c(-c2ccccc2)o1 | inactive | 
CSC1=NCCN1C(=O)Cc1cccs1 | inactive | 
O=CN1Cc2[nH]c3ccccc3c2N(c2ccc(Cl)cc2)C1=O | inactive | 
Cc1ccc(Oc2ccccc2)c(NC=O)c1 | inactive | 
COc1ncnc2c1N[C@@](C)(O)c1c(F)c(F)c(F)c(F)c1S2 | inactive | 
CCCCn1c(=NC(=O)c2ccco2)c(C(=O)OCC)cc2c(=O)n3ccccc3nc21 | inactive | 
NC(=O)CSc1nc2scc(-c3ccco3)c2c(=O)n1-c1ccccc1 |  | 1630 nM
CCc1nn(CCCC(=O)N2CCc3ccccc3C2)c(=O)c2cc3occc3n12 | inactive | 
COc1ccc(-c2noc(-c3ccco3)n2)cc1OC | inactive | 
CC1(C)Cc2c(C#N)c(NC3CCCCC3)nc(-c3ccco3)c2CO1 |  | 2600 nM
CCOc1ccc(C2Oc3nc(SC)nnc3-c3ccccc3N2C(C)=O)cc1OC (stereo not drawn) |  | 2380 nM

SMILES | outcome | EC50
CSc1oc(-c2ccco2)nc1S(=O)(=O)c1ccc(F)cc1 | inactive | 
Nc1nc(CN2CCN(c3ccccn3)CC2)nc(Nc2ccc(Cl)cc2)n1 | inactive | 
Cc1nc(-c2ccc(S(=O)(=O)N3CCCCCC3)cc2)cs1 | inactive | 
Cc1ccc(-c2nc3ncccn3c2NC(=O)C2CC2)cc1 | inactive | 
CCC(=O)NC(=Nc1nc2ccccc2s1)NC(=O)CC | inactive | 
Cc1ccc(Cn2c(-n3nc(C)cc3C)nc3c2c(=O)[nH]c(=O)n3C)cc1 | inactive | 
COc1ccc2c(c1)C(=O)N(c1ccccc1OC)C(=O)C2(C)C | inactive | 
CCn1c(=O)c(C(=O)NCc2cccnc2)c(O)c2ccccc21 | inactive | 
O=S1(=O)N=C(N2CCc3ccccc3C2)c2ccccc21 | inactive | 
CC(C)C1N=C2c3ccccc3N=C(SCC#N)N2C1=O (stereo not drawn) |  | 3140 nM
O=C1C(Cl)=C(NCC2CCCO2)C(=O)N1C1CCCCC1 (stereo not drawn) | inactive | 
COc1ccc(N2C(=O)C3CCCN3C2c2ccccc2)cc1Cl (stereo not drawn) | inactive | 
Nc1nc(SCC(=O)OCc2ccccc2)[nH]c(=O)c1NC(=O)c1ccco1 | inactive | 
CC(C)c1ccc(-c2nc(N3CCCCC3)[nH]c(=O)c2C#N)cc1 |  | 1750 nM
c1ccc(-c2nc3nonc3nc2-c2ccccc2)cc1 | inactive | 
COC(=O)c1cc(NC(=O)CSc2nc(C)cc(=O)[nH]2)cc(C(=O)OC)c1 | inactive | 
COC(=O)c1ccc(COc2nc(C)cc(C)c2C#N)o1 | inactive | 
COc1ccc(CCNc2nnc(Sc3nnnn3-c3ccccc3)s2)cc1OC | inactive | 
CS(=O)(=O)c1sc2nc(-c3cccs3)cc(-c3ccccc3)c2c1N | inactive | 
Cn1c(=O)c2c(nc(SCCCC#N)n2Cc2ccccc2F)n(C)c1=O | inactive | 
CCCn1c(=NC(C)=O)c(C(=O)OCC)cc2c(=O)n3ccccc3nc21 | inactive | 

Source: PubChem BioAssay AID858 (Vanderbilt High Throughput Screening Facility, 2007)
